Consider 1 compound from patent US20190070128A1, “USE OF CANNABIDIVARIN IN THE TREATMENT OF AUTISM SPECTRUM DISORDER, ASSOCIATED DISORDERS AND SCHIZOPHRENIA” (GW Research Limited, priority 2016, published 2019).

Assay [1] has as its system PCP-treated rats. As to the kind of experiment: novel object recognition test in sub-chronic PCP treated rats. The class given is in vivo, rat. Conditions: PCP rats; CBDV 2, 10 or 20 mg/kg i.p., risperidone 0.1 mg/kg i.p., 60 min prior to testing. As to the method:
(§1) Female hooded-Lister rats were used for this experiment. Rats were housed in groups of 5 under standard laboratory conditions under a 12 hr light: dark cycle, lights on at 0700 hr. Testing was carried out in the light phase.
(§2) Rats were randomly assigned to two treatment groups and treated with vehicle, n=20 (distilled water, i.p.) or Phencyclidine hydrochloride (PCP), n=100 (2 mg/kg, i.p. twice daily for 7-days). PCP was dissolved in distilled water. This was followed by a 7-day wash out period before the rats were tested following acute treatment with CBDV, risperidone or vehicle.
(§3) Risperidone (0.1 mg/kg) was dissolved in a minimum volume of acetic acid, made up to volume with distilled water and pH adjusted to 6 with 0.1M NaOH and administered via the i.p. route in a volume of 1 ml/kg, 60 min prior to testing.
(§4) CBDV at 2, 10 or 20 mg/kg was dissolved in 2:1:17 (Ethanol:Cremofor:Saline 0.9%) and administered via the i.p. route in a volume of 5 ml/kg, 60 min prior to testing.
Rats were allowed to habituate to the empty test box and the behavioural test room environment for 1 h on day 1. Prior to behavioural testing on day 2 rats are given a further 3 min habituation.
Following the 3 min habituation period, the rats are given two 3 min trials (T1 and T2) which are separated by a 1 min inter-trial interval in the home cage during which the objects are changed. Behaviour in all trials was recorded on video for subsequent blind scoring.
In this trial, the animals are allowed to explore two identical objects (A1 and A2) for 3 min.
In this trial, the animals explore a familiar object (A) from T1 and a novel object (B) for 3 min. The familiar object presented during T2 is a duplicate of the object presented in T1 in order to avoid any olfactory trails.
The object exploration is defined by animals licking, sniffing or touching the object with the forepaws whilst sniffing, but not leaning against, turning around, standing or sitting on the object. The exploration time (s) of each object (A, B, familiar and novel) in each trial are recorded using two stopwatches and the following factors are calculated: • Total exploration time of both objects in the acquisition trial (s). • Total exploration time of both objects in the retention trial (s). • Habituation of exploratory activity includes the exploration time, as measured by the number of lines crossed, for both the trials. • Discrimination index (DI), which is calculated as shown below: […]

Assay [2] has as its system PCP-treated rats. As to the kind of experiment: social interaction test in sub-chronic PCP treated rats. Type of assay: in vivo, rat. As to the method: as §1, §2, §3, §4
The social interaction test is performed in an open-field comprising a square box made of Plexiglas (52×52×31 cm) placed 27 cm above the floor on a moveable trolley. The floor of the box is white with black gridlines forming 9 identical squares on it. All other walls are black. A video camera connected to a video recorder and monitor is positioned above the box. The object used for the test consists of a heavy structure made of metal that cannot be displaced by the animals.
The rats were habituated to the test environment and arena prior to the test day. Habituation consists of placing all rats from one cage together in the empty test arena for one hour for three days including the day before the test day.
Pairs of rats, weight matched (15-20 g) and unfamiliar to each other, receiving either no treatment (n=70 “conspecific” rats) or different treatments (PCP and Vehicle; n=10 “tested” rats or PCP+Drug; n=50 “tested” rats) were placed in the test arena together for 10 min and behaviour assessed as described below.
An inanimate object such as an unopened drinks can is also placed in the centre of the arena to measure any differences in interaction of the test animal with an unfamiliar animal as opposed to an unfamiliar object. After each 10 minute trial, the object and arena are cleaned with 10% alcohol in an attempt to remove traces of any olfactory cues. All testing is carried out under standard room illumination levels (70 cd/m2).
Behaviour in both trials was recorded on video for subsequent blind scoring. A behavioural scoring software program (Hindsight, Scientific programming services) is used to score the following parameters: • Investigative sniffing behaviour: sniffing the conspecific's snout or parts of the body including the anogenital region; • Following: rat moves after the conspecific i.e. a vehicle treated rat of the same species, around the arena; • Avoidances: actively turning away when approached by the conspecific animal; • Investigation of object: exploration of object placed in centre of the arena; and • Locomotor activity is recorded by counting the total number of sectors (i.e. lines) crossed by the test rat.

Assay [3] concerns PCP-treated rats. The following applies: rat, in vivo; cited from earlier work.

The structures appear in SMILES notation.

For the compound `Cc1nc2n(c(=O)c1CCN1CCC(c3noc4cc(F)ccc34)CC1)CCCC2` [risperidone, reference compound], in the assay with PCP-treated rats [1], the “preference between two identical objects, Trial 1 (acquisition)” value is given as “no real preference”. Besides, in the assay with PCP-treated rats [2], the “PCP effects on social interaction (sniffing, following, avoiding)” value is “reverse these effects in a statistically significant manner”. The “time spent following the other rat” value in the assay on PCP-treated rats [2] (risperidone 0.1 mg/kg, time increased over PCP alone group) was “not seen to be significant”. The “PCP-induced deficit in the novel object recognition test” value with PCP-treated rats [3] was “attenuate”.
